Assay results reported in patent publication US8030500B2, “Substituted isoindoles for the treatment and/or prevention of Aβ- related pathologies” (AstraZeneca AB, priority 2008, dated 2011).
Like-named read-outs stand apart in the source and are kept apart here.

Target: T1, human β-Secretase (Homo sapiens, UniProt P56817)
T1 construct: soluble part of the human β-Secretase (AA 1-AA 460); Fc domain of IgG1; made in house
Test: TR-FRET assay (β-secretase enzyme, sBACE-Fc)
Format: biochemical
Description: The β-secretase enzyme used in the TR-FRET is prepared as follows:
The cDNA for the soluble part of the human β-Secretase (AA 1-AA 460) was cloned using the ASP2-Fc10-1-IRES-GFP-neoK mammalian expression vector. The gene was fused to the Fc domain of IgG1 (affinity tag) and stably cloned into HEK 293 cells.
The robotic systems Biomek FX and Velocity 11 were used for all liquid handling and the enzyme and substrate solutions were kept on ice until they were placed in the robotic system. Enzyme (9 μl) was added to the plate then 1 μl of compound in dimethylsulphoxide was added, mixed and pre-incubated for 10 minutes. Substrate (10 μl) was then added, mixed and the reaction proceeded for 15 minutes at room temperature. The reaction was stopped with the addition of Stop solution (7 μl, NaAcetate, pH 9). […] The dimethylsulphoxide control, instead of test compound, defined the 100% activity level and 0% activity was defined by wells lacking enzyme (replaced with reaction buffer).

[1] = soluble human β-secretase (sBACE-Fc), substrate (Europium)[…](Qsy7) 100 nM, pH4.5, read-out: IC50 in TR-FRET assay

T1 sequence (P56817 22-460): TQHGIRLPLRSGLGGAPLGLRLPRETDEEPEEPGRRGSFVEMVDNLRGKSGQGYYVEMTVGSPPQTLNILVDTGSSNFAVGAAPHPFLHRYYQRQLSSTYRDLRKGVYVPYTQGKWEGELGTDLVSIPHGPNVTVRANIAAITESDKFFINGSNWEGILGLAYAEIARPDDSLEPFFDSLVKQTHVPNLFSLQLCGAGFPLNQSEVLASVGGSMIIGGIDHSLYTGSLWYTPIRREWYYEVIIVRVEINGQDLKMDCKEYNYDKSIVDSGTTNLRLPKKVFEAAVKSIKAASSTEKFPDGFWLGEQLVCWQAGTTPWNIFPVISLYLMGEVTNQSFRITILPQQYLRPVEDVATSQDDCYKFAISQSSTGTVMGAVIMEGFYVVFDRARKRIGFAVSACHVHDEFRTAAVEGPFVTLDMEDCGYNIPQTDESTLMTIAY

| SMILES | IC50 [1] [nM] | IC50 (stated in the text of the example, read-out: IC50 in the FRET assay) [nM] |
| --- | --- | --- |
| NC1=NC(c2ccnc(C(F)(F)F)c2)(c2ccc(O)c(-c3cnccn3)c2)c2cccc(F)c21 (stereo not drawn) [Example 50, 4-(3-Amino-4-fluoro-1-(2-(trifluoromethyl)pyridin-4-yl)-1H-isoindol-1-yl)-2-(pyrazin-2-yl)phenol] | 420 |  |
| NC1=NC(c2ccnc(-c3cncnc3)c2)(c2ccnc(C3CC3)c2)c2cccc(F)c21 (stereo not drawn) [Example 52, 1-(2-Cyclopropylpyridin-4-yl)-4-fluoro-1-(2-(pyrimidin-5-yl)pyridin-4-yl)-1H-isoindol-3-amine] | 690 |  |
| Cc1cc(C2(c3cc(-c4cncc(F)c4)ccc3F)N=C(N)c3c(F)cccc32)ccn1 (stereo not drawn) [Example 4, 4-Fluoro-1-(2-fluoro-5-(5-fluoropyridin-3-yl)phenyl)-1-(2-methylpyridin-4-yl)-1H-isoindol-3-amine] | 1600 |  |
| NC1=NC(c2ccncc2)(c2cccc(-c3cccc(Cl)c3)c2)c2cccc(F)c21 (stereo not drawn) [Example 9, 1-(3′-Chlorobiphenyl-3-yl)-4-fluoro-1-(pyridin-4-yl)-1H-isoindol-3-amine] | 75 |  |
| Cc1cc(C2(c3cc(-c4cccnc4)ccc3F)N=C(N)c3c(F)cccc32)ccn1 (stereo not drawn) [Example 5, 4-Fluoro-1-(2-fluoro-5-(pyridin-3-yl)phenyl)-1-(2-methylpyridin-4-yl)-1H-isoindol-3-amine] | 1700 |  |
| CS(=O)(=O)c1cncc(-c2ccc(F)c(C3(c4ccnc(C(F)(F)F)c4)N=C(N)c4c(F)cccc43)c2)c1 (stereo not drawn) [Example 8, 4-Fluoro-1-(2-fluoro-5-(5-(methylsulfonyl)pyridin-3-yl)phenyl)-1-(2-(trifluoromethyl)pyridin-4-yl)-1H-isoindol-3-amine] | 12000 |  |
| NC1=NC(c2cccc(-c3cncnc3)c2)(c2ccnc(C(F)(F)F)c2)c2cccc(F)c21 (stereo not drawn) [Example 20, 4-Fluoro-1-(3-(pyrimidin-5-yl)phenyl)-1-(2-(trifluoromethyl)pyridin-4-yl)-1H-isoindol-3-amine] | 240 |  |
| Cc1cc(C2(c3cccc(-c4cncnc4)c3)N=C(N)c3c(F)cccc32)cc(C)n1 (stereo not drawn) [Example 21, 1-(2,6-Dimethylpyridin-4-yl)-4-fluoro-1-(3-(pyrimidin-5-yl)phenyl)-1H-isoindol-3-amine] | 1100 |  |
| COc1cc(C2(c3cccc(-c4cncc(C#N)c4)c3)N=C(N)c3c(F)cccc32)ccn1 (stereo not drawn) [Example 28, 5-(3-(3-Amino-4-fluoro-1-(2-methoxypyridin-4-yl)-1H-isoindol-1-yl)phenyl)nicotinonitrile acetate] | 470 |  |
| Cc1cc(C2(c3cccc(-c4cncnc4)c3)N=C(N)c3c(F)cccc32)nc(C)n1 (stereo not drawn) [Example 45, 1-(2,6-Dimethylpyrimidin-4-yl)-4-fluoro-1-(3-(pyrimidin-5-yl)phenyl)-1H-isoindol-3-amine] | 270 |  |
| Cc1cc(C2(c3cc(-c4cncc(S(C)(=O)=O)c4)ccc3F)N=C(N)c3c(F)cccc32)ccn1 (stereo not drawn) [Example 2, 4-Fluoro-1-(2-fluoro-5-(5-(methylsulfonyl)pyridin-3-yl)phenyl)-1-(2-methylpyridin-4-yl)-1H-isoindol-3-amine] |  | 27000 |
| N#Cc1cncc(-c2cccc(C3(c4ccnc(C(F)(F)F)c4)N=C(N)c4c(F)cccc43)c2)c1 (stereo not drawn) [Example 23, 5-(3-(3-Amino-4-fluoro-1-(2-(trifluoromethyl)pyridin-4-yl)-1H-isoindol-1-yl)phenyl)nicotinonitrile] | 250 |  |
| COc1cc(C2(c3cccc(-c4cnccn4)c3)N=C(N)c3c(F)cccc32)ccn1 (stereo not drawn) [Example 29, 4-Fluoro-1-(2-methoxypyridin-4-yl)-1-(3-(pyrazin-2-yl)phenyl)-1H-isoindol-3-amine acetate] | 200 |  |
| NC1=NC(c2ccnc(C(F)(F)F)c2)(c2cc(-c3cncnc3)ccc2F)c2cccc(F)c21 (stereo not drawn) [Example 6, 4-Fluoro-1-(2-fluoro-5-(pyrimidin-5-yl)phenyl)-1-(2-(trifluoromethyl)pyridin-4-yl)-1H-isoindol-3-amine] | 1100 |  |
| Cc1cc(C2(c3cc(-c4cncnc4)ccc3F)N=C(N)c3c(F)cccc32)ccn1 (stereo not drawn) [Example 1, 4-Fluoro-1-(2-fluoro-5-(pyrimidin-5-yl)phenyl)-1-(2-methylpyridin-4-yl)-1H-isoindol-3-amine] | 1600 |  |
| COc1cc(C2(c3cccc(-c4cc(C#N)ccn4)c3)N=C(N)c3c(F)cccc32)ccn1 (stereo not drawn) [Example 39, 2-(3-(3-Amino-4-fluoro-1-(2-methoxypyridin-4-yl)-1H-isoindol-1-yl)phenyl)isonicotinonitrile] | 1100 |  |
| Cc1cc(C2(c3ccnc(-c4cncc(F)c4)c3)N=C(N)c3c(F)cccc32)nc(C)c1OC(F)F (stereo not drawn) [Example 53, 3-(5-Difluoromethoxy-4,6-dimethyl-pyridin-2-yl)-7-fluoro-3-(5′-fluoro-[2,3′]bipyridinyl-4-yl)-3H-isoindol-1-ylamine] | 910 |  |
| COc1cc(C2(c3cccc(-c4cncnc4)c3)N=C(N)c3c(F)cccc32)ccn1 (stereo not drawn) [Example 27, 4-Fluoro-1-(2-methoxypyridin-4-yl)-1-(3-(pyrimidin-5-yl)phenyl)-1H-isoindol-3-amine] | 400 |  |
| Cc1cc(C2(c3cccc(-c4cncnc4)c3)N=C(N)c3c(F)cc(Cl)cc32)ccn1 (stereo not drawn) [Example 56, 6-Chloro-4-fluoro-1-(2-methylpyridin-4-yl)-1-(3-(pyrimidin-5-yl)phenyl)-1H-isoindol-3-amine] | 230 |  |
| COc1cc(C2(c3cccc(-c4cncnc4)c3)N=C(N)c3c(F)cccc32)cc(F)c1F (stereo not drawn) [Example 46, 1-(3,4-Difluoro-5-methoxyphenyl)-4-fluoro-1-(3-(pyrimidin-5-yl)phenyl)-1H-isoindol-3-amine] | 690 |  |
| Cc1cc(C2(c3cccc(-c4cncnc4)c3)N=C(N)c3c(F)cccc32)cc(C(F)F)n1 (stereo not drawn) [Example 32, 1-(2-(Difluoromethyl)-6-methylpyridin-4-yl)-4-fluoro-1-(3-(pyrimidin-5-yl)phenyl)-1H-isoindol-3-amine] | 90 |  |
| COc1cc(C2(c3ccc(F)c(-c4cncnc4)c3)N=C(N)c3c(F)cccc32)ccn1 (stereo not drawn) [Example 24, 4-Fluoro-1-(4-fluoro-3-(pyrimidin-5-yl)phenyl)-1-(2-methoxypyridin-4-yl)-1H-isoindol-3-amine] | 280 |  |
| COc1ccc(C2(c3cccc(-c4cncnc4)c3)N=C(N)c3c(F)cccc32)cc1C#N (stereo not drawn) [Example 43, 5-(3-Amino-4-fluoro-1-(3-(pyrimidin-5-yl)phenyl)-1H-isoindol-1-yl)-2-methoxybenzonitrile] | 560 |  |
| COc1c(C)cc(C2(c3cccc(-c4cncnc4)c3)N=C(N)c3c(F)cccc32)cc1CC#N (stereo not drawn) [Example 47, 2-(5-(3-Amino-4-fluoro-1-(3-(pyrimidin-5-yl)phenyl)-1H-isoindol-1-yl)-2-methoxy-3-methylphenyl) acetonitrile] | 83 |  |
| NC1=NC(c2ccncc2)(c2cccc(-c3cncnc3)c2)c2cccc(F)c21 (stereo not drawn) [Example 10, 4-Fluoro-1-(pyridin-4-yl)-1-(3-(pyrimidin-5-yl)phenyl)-1H-isoindol-3-amine] | 160 |  |
| COc1cc(C2(c3cccc(-c4cncnc4)c3)N=C(N)c3c(F)cccc32)ccc1F (stereo not drawn) [Example 48, 4-Fluoro-1-(4-fluoro-3-methoxyphenyl)-1-(3-(pyrimidin-5-yl)phenyl)-1H-isoindol-3-amine] | 350 |  |
| NC1=NC(c2cccc(-c3cncnc3)c2)(c2ccnc(C(F)(F)F)c2)c2cc(Cl)cc(F)c21 (stereo not drawn) [Example 55, 6-Chloro-4-fluoro-1-(3-(pyrimidin-5-yl)phenyl)-1-(2-(trifluoromethyl)pyridin-4-yl)-1H-isoindol-3-amine] | 150 |  |
